# pIC50: −log10 of the molar value.
# What was measured:
# [1] = biological target: T1, Tyrosine-protein kinase ZAP-70 (Homo sapiens) (UniProt P43403); assay: Inhibition of human full length recombinant ZAP70 at 50 nM by radiometric scintillation counting analysis relative to control
# T1 sequence (whole entry): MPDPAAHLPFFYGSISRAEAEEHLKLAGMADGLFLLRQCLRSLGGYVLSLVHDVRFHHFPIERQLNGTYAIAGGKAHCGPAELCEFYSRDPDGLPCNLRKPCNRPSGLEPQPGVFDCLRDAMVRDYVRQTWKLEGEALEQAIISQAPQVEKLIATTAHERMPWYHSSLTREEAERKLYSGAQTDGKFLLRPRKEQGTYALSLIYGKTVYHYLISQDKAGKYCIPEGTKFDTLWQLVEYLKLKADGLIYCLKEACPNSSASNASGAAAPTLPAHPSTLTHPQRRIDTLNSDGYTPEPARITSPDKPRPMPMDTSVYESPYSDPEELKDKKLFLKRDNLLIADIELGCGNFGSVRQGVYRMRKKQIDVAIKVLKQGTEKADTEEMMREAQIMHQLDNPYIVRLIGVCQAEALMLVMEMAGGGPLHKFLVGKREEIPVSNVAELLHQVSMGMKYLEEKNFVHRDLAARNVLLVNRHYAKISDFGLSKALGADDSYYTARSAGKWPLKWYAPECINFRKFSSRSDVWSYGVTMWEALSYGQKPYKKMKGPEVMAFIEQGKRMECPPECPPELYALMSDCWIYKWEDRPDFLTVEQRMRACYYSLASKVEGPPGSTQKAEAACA
# [2] = biological target: T2, Tyrosine-protein kinase Tec (Homo sapiens) (UniProt P42680); assay: Inhibition of human recombinant Tec (174 to end) at 500 nM by radiometric scintillation counting analysis relative to control
# T2 sequence (whole entry): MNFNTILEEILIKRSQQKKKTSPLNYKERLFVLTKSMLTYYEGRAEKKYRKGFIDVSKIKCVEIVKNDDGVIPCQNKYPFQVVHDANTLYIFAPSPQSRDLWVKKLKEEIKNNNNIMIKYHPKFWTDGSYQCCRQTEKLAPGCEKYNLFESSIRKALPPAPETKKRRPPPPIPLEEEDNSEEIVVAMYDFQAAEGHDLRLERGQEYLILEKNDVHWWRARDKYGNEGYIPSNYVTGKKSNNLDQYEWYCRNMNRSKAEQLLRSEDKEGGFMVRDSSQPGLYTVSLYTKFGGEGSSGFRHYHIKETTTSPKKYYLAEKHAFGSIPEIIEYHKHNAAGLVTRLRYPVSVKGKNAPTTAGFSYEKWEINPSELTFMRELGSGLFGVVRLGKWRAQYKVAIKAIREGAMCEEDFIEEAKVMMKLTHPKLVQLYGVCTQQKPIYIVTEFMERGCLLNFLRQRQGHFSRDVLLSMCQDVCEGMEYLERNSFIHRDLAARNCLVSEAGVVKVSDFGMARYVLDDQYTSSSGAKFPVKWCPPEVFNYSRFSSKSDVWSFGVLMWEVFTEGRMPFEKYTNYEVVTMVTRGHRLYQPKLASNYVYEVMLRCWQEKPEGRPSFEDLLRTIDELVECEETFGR
# [3] = biological target: T3, Macrophage colony-stimulating factor 1 receptor (Homo sapiens, UniProt P07333); assay: Inhibition of human recombinant CSF1R using ATP/Ulight-TK peptide incubated for 15 mins
# [4] = biological target: Tyrosine-protein kinase Lck (Homo sapiens, UniProt P06239); assay: Inhibition of human full length recombinant LCK at 50 nM by radiometric scintillation counting analysis relative to control
# [5] = biological target: T4, Inhibitor of nuclear factor kappa-B kinase subunit alpha (Homo sapiens) (UniProt O15111); assay: Inhibition of human full length recombinant IKKalpha at 5 nM by radiometric scintillation counting analysis relative to control
# T4 sequence (whole entry): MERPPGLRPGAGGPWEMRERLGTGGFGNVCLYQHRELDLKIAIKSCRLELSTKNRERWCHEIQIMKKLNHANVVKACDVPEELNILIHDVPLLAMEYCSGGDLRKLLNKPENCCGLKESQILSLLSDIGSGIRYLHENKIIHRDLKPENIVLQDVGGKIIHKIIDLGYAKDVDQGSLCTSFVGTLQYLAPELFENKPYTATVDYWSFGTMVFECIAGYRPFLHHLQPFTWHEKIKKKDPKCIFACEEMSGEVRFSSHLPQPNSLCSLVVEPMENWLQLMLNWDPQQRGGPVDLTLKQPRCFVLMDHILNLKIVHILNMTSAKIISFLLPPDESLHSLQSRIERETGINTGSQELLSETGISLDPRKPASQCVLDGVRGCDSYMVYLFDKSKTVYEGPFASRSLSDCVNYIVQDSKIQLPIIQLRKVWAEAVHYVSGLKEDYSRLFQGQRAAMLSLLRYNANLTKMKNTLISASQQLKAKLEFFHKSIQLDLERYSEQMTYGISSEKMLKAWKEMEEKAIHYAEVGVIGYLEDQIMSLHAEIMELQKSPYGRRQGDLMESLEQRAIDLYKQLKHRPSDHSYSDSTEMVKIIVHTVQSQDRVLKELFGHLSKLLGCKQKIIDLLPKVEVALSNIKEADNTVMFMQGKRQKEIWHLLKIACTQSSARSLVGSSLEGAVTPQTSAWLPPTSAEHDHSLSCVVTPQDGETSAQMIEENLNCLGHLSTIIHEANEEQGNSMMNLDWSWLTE
# [6] = biological target: Tyrosine-protein kinase BTK (Homo sapiens) (UniProt Q06187); assay: Inhibition of human full length recombinant BTK at 50 nM by radiometric scintillation counting analysis relative to control
# [7] = biological target: T5, Proto-oncogene tyrosine-protein kinase Src (Homo sapiens, UniProt P12931); assay: Inhibition of human recombinant Src (1-530) by radiometric scintillation counting analysis
# [8] = biological target: T5, Proto-oncogene tyrosine-protein kinase Src; assay: Inhibition of human recombinant Src (1-530) at 50 nM by radiometric scintillation counting analysis relative to control
# [9] = biological target: T3, Macrophage colony-stimulating factor 1 receptor; assay: Inhibition of human recombinant CSF1R using ATP/Ulight-TK peptide at 50 nM incubated for 15 mins
# [10] = test system: RBL-2H3; assay: Antiallergic activity against anti-DNP-IgE sensitized rat RBL-2H3 cells assessed as […] of degranulation by measuring beta-hexosaminidase release using P-nitrophenyl-N-acetyl-D-glucosamide as substrate at 0.2 uM measured after 1 hr by microplate reader relative to control; format: functional
# [11] = biological target: Tyrosine-protein kinase Yes (Homo sapiens, UniProt P07947); assay: Inhibition of human full length recombinant Yes at 5 nM by radiometric scintillation counting analysis relative to control
# Sequence of Tyrosine-protein kinase Yes (P07947 2-543 limits assumed): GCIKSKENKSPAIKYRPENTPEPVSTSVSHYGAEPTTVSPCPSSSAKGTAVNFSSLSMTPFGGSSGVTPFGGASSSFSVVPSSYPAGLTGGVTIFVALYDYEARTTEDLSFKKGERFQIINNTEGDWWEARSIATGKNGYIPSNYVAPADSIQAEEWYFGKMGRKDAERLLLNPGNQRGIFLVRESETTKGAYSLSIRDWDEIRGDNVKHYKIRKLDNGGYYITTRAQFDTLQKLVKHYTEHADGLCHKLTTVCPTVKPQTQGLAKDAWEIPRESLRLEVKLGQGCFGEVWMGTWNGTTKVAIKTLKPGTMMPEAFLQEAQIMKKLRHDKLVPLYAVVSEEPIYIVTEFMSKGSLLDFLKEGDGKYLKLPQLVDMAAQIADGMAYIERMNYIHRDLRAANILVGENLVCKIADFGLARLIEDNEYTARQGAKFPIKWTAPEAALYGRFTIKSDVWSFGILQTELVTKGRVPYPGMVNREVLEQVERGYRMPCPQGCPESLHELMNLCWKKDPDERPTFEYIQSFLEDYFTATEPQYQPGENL
# T5 sequence (P12931 2-536 limits assumed): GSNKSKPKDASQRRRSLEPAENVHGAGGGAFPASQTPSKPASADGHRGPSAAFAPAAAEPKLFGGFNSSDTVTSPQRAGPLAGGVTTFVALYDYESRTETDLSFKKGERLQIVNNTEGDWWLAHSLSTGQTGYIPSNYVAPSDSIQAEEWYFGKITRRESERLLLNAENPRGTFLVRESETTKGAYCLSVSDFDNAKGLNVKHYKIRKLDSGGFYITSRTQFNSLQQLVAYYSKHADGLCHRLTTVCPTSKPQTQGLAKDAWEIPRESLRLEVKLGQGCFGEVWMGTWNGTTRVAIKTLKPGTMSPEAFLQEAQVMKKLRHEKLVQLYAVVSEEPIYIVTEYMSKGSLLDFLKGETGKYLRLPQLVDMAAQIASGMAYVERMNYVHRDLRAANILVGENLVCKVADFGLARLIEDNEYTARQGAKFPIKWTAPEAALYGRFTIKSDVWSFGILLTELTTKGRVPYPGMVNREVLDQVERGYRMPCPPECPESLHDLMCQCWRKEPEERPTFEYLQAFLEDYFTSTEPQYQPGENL
# T3 sequence (P07333 whole entry): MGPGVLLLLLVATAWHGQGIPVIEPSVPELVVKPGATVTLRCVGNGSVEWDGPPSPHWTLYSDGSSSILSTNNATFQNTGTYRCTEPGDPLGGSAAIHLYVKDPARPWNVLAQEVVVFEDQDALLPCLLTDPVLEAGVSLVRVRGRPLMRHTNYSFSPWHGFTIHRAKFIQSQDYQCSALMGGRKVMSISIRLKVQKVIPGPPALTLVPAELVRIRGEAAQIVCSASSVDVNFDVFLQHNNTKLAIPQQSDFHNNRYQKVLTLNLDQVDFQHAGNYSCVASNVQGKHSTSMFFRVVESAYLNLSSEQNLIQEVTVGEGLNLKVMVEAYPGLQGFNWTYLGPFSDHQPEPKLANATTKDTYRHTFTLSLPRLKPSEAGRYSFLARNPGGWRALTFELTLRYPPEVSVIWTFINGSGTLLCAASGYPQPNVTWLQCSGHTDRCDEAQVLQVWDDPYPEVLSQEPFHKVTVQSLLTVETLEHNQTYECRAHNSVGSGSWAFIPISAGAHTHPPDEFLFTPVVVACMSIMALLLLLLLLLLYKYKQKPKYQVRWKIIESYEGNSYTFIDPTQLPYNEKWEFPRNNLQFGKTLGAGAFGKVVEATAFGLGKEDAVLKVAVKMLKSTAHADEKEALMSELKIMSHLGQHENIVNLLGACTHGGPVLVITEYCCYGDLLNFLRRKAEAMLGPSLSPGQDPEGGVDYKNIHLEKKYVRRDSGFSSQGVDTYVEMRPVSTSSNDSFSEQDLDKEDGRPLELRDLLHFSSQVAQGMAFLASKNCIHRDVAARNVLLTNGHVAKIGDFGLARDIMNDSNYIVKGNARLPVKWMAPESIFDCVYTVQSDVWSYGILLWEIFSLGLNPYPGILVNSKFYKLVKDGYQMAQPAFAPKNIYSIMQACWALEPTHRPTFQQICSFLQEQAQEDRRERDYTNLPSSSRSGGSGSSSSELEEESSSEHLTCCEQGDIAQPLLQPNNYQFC
# Sequence of Tyrosine-protein kinase Lck (P06239 2-509 limits assumed): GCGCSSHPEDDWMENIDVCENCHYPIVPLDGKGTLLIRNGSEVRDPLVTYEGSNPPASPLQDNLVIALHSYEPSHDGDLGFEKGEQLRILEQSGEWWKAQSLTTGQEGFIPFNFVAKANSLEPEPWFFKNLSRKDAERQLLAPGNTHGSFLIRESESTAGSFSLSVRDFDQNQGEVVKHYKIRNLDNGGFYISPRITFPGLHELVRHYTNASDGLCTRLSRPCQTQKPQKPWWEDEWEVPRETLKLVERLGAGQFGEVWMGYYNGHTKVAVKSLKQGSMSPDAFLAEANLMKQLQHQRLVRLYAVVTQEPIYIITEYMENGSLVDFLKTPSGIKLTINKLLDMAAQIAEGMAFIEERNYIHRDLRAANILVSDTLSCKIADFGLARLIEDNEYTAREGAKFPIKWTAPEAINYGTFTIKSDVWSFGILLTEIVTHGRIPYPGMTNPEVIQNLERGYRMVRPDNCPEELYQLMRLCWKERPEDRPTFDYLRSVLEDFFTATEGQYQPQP
# Sequence of Tyrosine-protein kinase BTK (Homo sapiens) (Q06187 whole entry): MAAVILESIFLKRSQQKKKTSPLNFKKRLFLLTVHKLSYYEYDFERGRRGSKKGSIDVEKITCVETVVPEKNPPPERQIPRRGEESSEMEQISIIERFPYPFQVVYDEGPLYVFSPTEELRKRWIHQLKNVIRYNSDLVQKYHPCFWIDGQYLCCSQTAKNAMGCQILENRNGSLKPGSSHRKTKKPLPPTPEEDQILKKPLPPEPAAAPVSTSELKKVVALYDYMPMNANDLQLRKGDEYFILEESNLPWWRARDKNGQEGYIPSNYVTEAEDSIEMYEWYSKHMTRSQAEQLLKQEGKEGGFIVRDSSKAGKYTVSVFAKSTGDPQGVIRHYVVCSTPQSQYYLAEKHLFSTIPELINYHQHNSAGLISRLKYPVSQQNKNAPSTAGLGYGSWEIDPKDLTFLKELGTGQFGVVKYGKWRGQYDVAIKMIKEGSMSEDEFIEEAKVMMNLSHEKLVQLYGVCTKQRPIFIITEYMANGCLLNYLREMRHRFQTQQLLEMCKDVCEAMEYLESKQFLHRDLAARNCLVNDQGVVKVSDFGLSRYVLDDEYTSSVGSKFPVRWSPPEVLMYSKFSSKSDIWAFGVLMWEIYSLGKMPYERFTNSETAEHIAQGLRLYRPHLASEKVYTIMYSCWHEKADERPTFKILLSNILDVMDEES
Structure (SMILES),inhibition [1],inhibition [2],pIC50 [3],inhibition [4],inhibition [5],inhibition [6],pIC50 [7],inhibition [8],pIC50 [9],inhibition at 0.2 µM [10],inhibition [11]
Cc1ccc(C(=O)Nc2cc(C(F)(F)F)cc(C(F)(F)F)c2)cc1C#Cc1cc(-c2cnn(C)c2)cnc1N,12%,-3%,7.32,60%,9%,27%,7.92,98%,7.32,162%,–
Cc1ccc(C(=O)Nc2ccc(OC(F)(F)F)cc2)cc1C#Cc1cc(-c2cnn(C)c2)cnc1N,6%,–,7.66,98%,–,–,–,95%,–,122%,0%
Cc1ccc(C(=O)Nc2ccc(Cl)cc2Cl)cc1C#Cc1cc(-c2cnn(C)c2)cnc1N,2%,-7%,–,59%,6%,8%,6.79,49%,7.96,–,-7%
